Results: US12054553B2, “Immunotherapeutic tumor treatment method” (Nektar Therapeutics, priority 2017, dated 2024)

Legend:
[1] = system: STAT5 phosphorylation in lymphocytes; assay: STAT5 phosphorylation in lymphocytes by flow cytometry after administration in mice; assay type: in vivo
From the text: Conventional approaches, such as those involving radiolabeling a compound, administering it in vivo, and determining its clearance, may be used to determine whether a compound proposed to be a long-acting IL-2Rβ biased agonist is “long-acting”. For the purposes herein, the long-acting nature of an IL-2Rβ biased agonist is typically determined using flow cytometry to measure STAT5 phosphorylation in lymphocytes at various time points after administration of the agonist to be evaluated in mice.

[2] = system: B16F10 mouse melanoma tumors; assay: Immune cells in tumor microenvironment by flow cytometry, subcutaneous B16F10 melanoma; assay type: in vivo, mice

aldesleukin: clinically available IL-2 (aldesleukin), unmodified recombinant IL-2
time by which STAT5 phosphorylation signal is lost [1]: around 24 hours
activated natural killer (NK) cells ([2]; 5 and 7 days after treatment initiation): increased
ratio of CD8/Treg in the tumor ([2]; by day 7, single dose RSLAIL-2 or 5 doses aldesleukin): 18
total and memory CD8 cells as percentage of tumor-infiltrating lymphocytes ([2]; relative to vehicle): increased as a percentage of tumor-infiltrating lymphocytes; however, these effects were transient
percentage of Tregs (FoxP3+ subset of CD4 cells) in tumor ([2]; single dose RSLAIL-2 or 5 doses aldesleukin): modest achieving significance on day 5
